Results as given in patent publication US20040185566A1, “Polypeptides toxic to nematodes and methods of use” (priority 2003, published 2004).
Read-outs that look alike come from different tables or passages of the source. Where a SMILES comes first, the peptide text is derived from it. [ ]: non-standard residue; d: D form. The star is where a group is joined. Sta = CC(C)C[C@H](N)[C@@H](O)CC(=O)O; Isovaleryl = CC(C)CC(=O)*

Molecular target: SMP #1 (Serratia marcescens, UniProt P23694, N428Q/P266L)
Assay type: biochemical, S. marcescens NRRL B-23112

`CC(C)C[C@H](NC(=O)[C@@H](O)[C@H](N)Cc1ccccc1)C(=O)O` [bestatin] was tested, and the “inhibition of SMP #1 proteolytic activity” value (“inhibition” for short) (bestatin 80 μg/ml) was “not inhibited”.

In the case of `CC(C)C[C@H](NC(=O)[C@@H](NC(=O)N[C@@H](Cc1ccccc1)C(=O)O)[C@@H]1CCN=C(N)N1)C(=O)N[C@H](C=O)Cc1ccccc1` [chymostatin], the “inhibition” value (chymostatin 50 μg/ml) is reported as “not inhibited”.

For `CC(=O)N[C@@H](CC(C)C)C(=O)N[C@@H](CC(C)C)C(=O)N[C@H](C=O)CCCNC(=N)N` [leupeptin], the “inhibition” value (leupeptin 4 μg/ml) was “not inhibited”.

With `CC(C)CC(=O)N[C@H](C(=O)N[C@H](C(=O)N[C@@H](CC(C)C)[C@@H](O)CC(=O)N[C@@H](C)C(=O)N[C@@H](CC(C)C)[C@@H](O)CC(=O)O)C(C)C)C(C)C` [pepstatin] (Isovaleryl-VV[Sta]A[Sta]-OH) the “inhibition” value (pepstatin 4 μg/ml) was “not inhibited”.

`O=S(=O)(F)Cc1ccccc1` [phenylmethylsulfonyl fluoride] was tested, and the “inhibition” value (phenylmethylsulfonyl fluoride 400 μ/ml) was “not inhibited”.

In the case of `CC(C)C[C@H](NP(=O)(O)O[C@@H]1O[C@@H](C)[C@H](O)[C@@H](O)[C@H]1O)C(=O)N[C@@H](Cc1c[nH]c2ccccc12)C(=O)O` [phosphoramidon], the “inhibition” value (phosphoramidon 660 μ/ml) is reported as “not inhibited”.
